According to patent publication US11820766B2, “Monoacylglycerol lipase modulators” (Janssen Pharmaceutica NV, priority 2018, dated 2023):

Biological target: T1, human MGL from HeLa cells (Homo sapiens, UniProt Q99685)
T1 construct: combining endogenously expressed MGL from HeLa cells with test compounds; endogenous in cells; host or cells: HeLa cells / cell homogenates
T1 sequence (Q99685 1-303): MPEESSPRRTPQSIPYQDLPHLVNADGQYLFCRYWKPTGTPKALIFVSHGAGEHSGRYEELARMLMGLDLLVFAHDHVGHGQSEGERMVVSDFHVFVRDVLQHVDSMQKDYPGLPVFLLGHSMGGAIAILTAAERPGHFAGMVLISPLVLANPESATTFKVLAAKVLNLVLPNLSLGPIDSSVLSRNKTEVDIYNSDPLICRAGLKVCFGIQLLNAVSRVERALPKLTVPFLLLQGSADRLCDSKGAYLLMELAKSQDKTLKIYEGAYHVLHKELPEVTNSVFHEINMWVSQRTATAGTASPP
Assay: In vitro MGL activity assay: [glycerol-1,3-3H]-oleyl glycerol cleavage by MGL from HeLa cells
Type: biochemical
Details: 300 nM [Glycerol-1,3-3H]-oleyl glycerol, one hour
Text: MGL is the predominant hydrolase in HeLa cells/cell homogenates.

Structure (SMILES)	IC50
C[C@H]1c2nn(C)c(-c3cccc4cc[nH]c34)c2CCN1C(=O)c1ccc2ncccc2c1 [Example 531, [(7S)-3-(1H-Indol-7-yl)-2,7-dimethyl-5,7-dihydro-4H-pyrazolo[3,4-c]pyridin-6-yl]-(6-quinolyl)methanone]	22.9 nM
C[C@H]1c2nn(C)c(-c3cc(F)c(F)c(F)c3)c2CCN1C(=O)c1nn(C)c2ncccc12 [Example 427, [(7S)-2,7-Dimethyl-3-(3,4,5-trifluorophenyl)-5,7-dihydro-4H-pyrazolo[3,4-c]pyridin-6-yl]-(1-methylpyrazolo[3,4-b]pyridin-3-yl)methanone]	28.6 nM

Second part, the compound after the results:

IC50	Structure (SMILES)
10.5 nM	COc1cc(Cl)cc(-c2c3c(nn2C)[C@H](C)N(C(=O)c2ccc4ncccc4c2)CC3)c1 [Example 513, [(7S)-3-(3-Chloro-5-methoxy-phenyl)-2,7-dimethyl-5,7-dihydro-4H-pyrazolo[3,4-c]pyridin-6-yl]-(6-quinolyl)methanone]
25.4 nM	Cc1nc2ccc(C(=O)N3CCc4c(nn(C)c4-c4cc(F)c(F)c(F)c4)[C@@H]3C)cc2nc1C [Example 476, (2,3-Dimethylquinoxalin-6-yl)-[(7S)-2,7-dimethyl-3-(3,4,5-trifluorophenyl)-5,7-dihydro-4H-pyrazolo[3,4-c]pyridin-6-yl]methanone]
5.06 nM	C[C@H]1c2nn(C)c(-c3cc(F)c(F)c(F)c3)c2CCN1C(=O)c1cncc2c(F)cccc12 [Example 546, [(7S)-2,7-Dimethyl-3-(3,4,5-trifluorophenyl)-5,7-dihydro-4H-pyrazolo[3,4-c]pyridin-6-yl]-(8-fluoro-4-isoquinolyl)methanone]

Same assay, conditions: 300 nM [Glycerol-1,3-3H]-oleyl glycerol, one hour incubation

Structure (SMILES)	IC50
CCc1nc(C(=O)N2CCc3c(nn(C)c3-c3cccc(Cl)c3)[C@@H]2C)nn1-c1ccccc1F [Example 118, (S)-(3-(3-Chlorophenyl)-2,7-dimethyl-2,4,5,7-tetrahydro-6H-pyrazolo[3,4-c]pyridin-6-yl)(5-ethyl-1-(2-fluorophenyl)-1H-1,2,4-triazol-3-yl)methanone]	13.8 nM
Cn1nc2c(c1-c1ccccc1)CCN(C(=O)c1cccc3occc13)C2 [Example 34, Benzofuran-4-yl(2-methyl-3-phenyl-2,4,5,7-tetrahydro-6H-pyrazolo[3,4-c]pyridin-6-yl)methanone]	300 nM
C[C@H]1c2nn(C)c(-c3cc(F)c(F)c(F)c3)c2CCN1C(=O)c1cnn(C)c1C1CC1 [Example 201, (S)-(5-Cyclopropyl-1-methyl-1H-pyrazol-4-yl)(2,7-dimethyl-3-(3,4,5-trifluorophenyl)-2,4,5,7-tetrahydro-6H-pyrazolo[3,4-c]pyridin-6-yl)methanone]	6.26 nM
Cn1nc2c(c1-c1ccccc1)CCN(C(=O)c1cccc3nccn13)C2 [Example 80, Imidazo[1,2-a]pyridin-5-yl(2-methyl-3-phenyl-2,4,5,7-tetrahydro-6H-pyrazolo[3,4-c]pyridin-6-yl)methanone]	2330 nM
Cn1nc2c(c1-c1ccccc1)CCN(C(=O)c1cccc3c1OCO3)C2 [Example 28, Benzo[d][1,3]dioxol-4-yl(2-methyl-3-phenyl-2,4,5,7-tetrahydro-6H-pyrazolo[3,4-c]pyridin-6-yl)methanone]	4000 nM

The next lines start with the values.

IC50	Structure (SMILES)
39.5 nM	C[C@H]1c2nn(C)c(-c3cc(F)cc(F)c3)c2CCN1C(=O)c1ccc(OCCF)cc1 [Example 138, (S)-(3-(3,5-Difluorophenyl)-2,7-dimethyl-2,4,5,7-tetrahydro-6H-pyrazolo[3,4-c]pyridin-6-yl)(4-(2-fluoroethoxy)phenyl)methanone]
2230 nM	C[C@H]1c2nn(C)c(-c3cncc(C(F)(F)F)c3)c2CCN1C(=O)c1ccc2nccnc2c1 [Example 248, (S)-(2,7-Dimethyl-3-(5-(trifluoromethyl)pyridin-3-yl)-2,4,5,7-tetrahydro-6H-pyrazolo[3,4-c]pyridin-6-yl)(quinoxalin-6-yl)methanone]
5080 nM	C[C@H]1c2nn(C)c(-c3cc(F)c(F)c(F)c3)c2CCN1C(=O)c1cnn(C(F)(F)F)c1 [Example 329, [(7S)-2,7-Dimethyl-3-(3,4,5-trifluorophenyl)-5,7-dihydro-4H-pyrazolo[3,4-c]pyridin-6-yl]-[1-(trifluoromethyl)pyrazol-4-yl]methanone]
